For one assay, the system named is Aβ1-40. Description: Measurement of Aβ1-40 in culture medium of 7W WT APP751 CHO cells by ELISA. In kind it is cell-based, Chinese hamster. The following applies: Cricetulus griseus; Table 1; 5 μM test compound; CHO cells stably transfected with human APP751; culture medium, ELISA; control DMSO; 0 = no detectable amount. A general note: An ELISA detects its analyte on a solid surface through an enzyme-linked reagent.

The test system of the next assay is Aβ1-42. Description: Measurement of Aβ1-42 in culture medium of 7W WT APP751 CHO cells by ELISA. In kind it is cell-based, Chinese hamster. Particulars: Cricetulus griseus; Table 1; 5 μM test compound; CHO cells stably transfected with human APP751; culture medium, ELISA; control DMSO; 0 = no detectable amount; read-out: Aβ1-42 (% of control).

The results in this text go back to patent US20100119599A1 (ARCHER PHARMACEUTICALS, INC., priority 2006, published 2010).
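Further: 5 µM test compound but RI-coded compounds at 10 µM for 24 hours.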

As for `COC(=O)C1=C(C)NC2=C(C(=O)CC(C)(C)C2)C1c1cccc(Cl)c1Cl` (centres unmarked) [ST013151, methyl 4-(2,3-dichlorophenyl)-2,7,7-trimethyl-5-oxo-1,4,6,7,8-pentahydroquinoline-3-carboxylate], the values for the activity at 5 µM with Aβ1-40 and with Aβ1-42 were 52.1% and 61.6%, respectively.

On to `CCCCCOC(=O)C1=C(C)NC2=C(C(=O)CCC2)C1c1cccc(Cl)c1` (centres unmarked) [ST013152, pentyl 4-(3-chlorophenyl)-2-methyl-5-oxo-1,4,6,7,8-pentahydroquinoline-3-carboxylate], for which the activity at 5 µM in the assay with Aβ1-40 turned out to be 22%; with Aβ1-42 it was 33.2%.

Regarding `COC(=O)C1=C(C)NC2=C(C(=O)CCC2)C1c1cccc(OC)c1` (centres unmarked) [ST013153, methyl 4-(3-methoxyphenyl)-2-methyl-5-oxo-1,4,6,7,8-pentahydroquinoline-3-carboxylate], the figures for the activity at 5 µM in the assay with Aβ1-40 and with Aβ1-42 were 91.4% and 66.3%, respectively.

Consider `CC1=C(C(=O)OC2CCCC2)C(c2cccc(Cl)c2)C2=C(CCCC2=O)N1` (centres unmarked) [ST013156, cyclopentyl 4-(3-chlorophenyl)-2-methyl-5-oxo-1,4,6,7,8-pentahydroquinoline-3-carboxylate], for which the results for the activity at 5 µM in the assay on Aβ1-40 and in the assay on Aβ1-42 were 0% and 13.7%, respectively.

As for `CCOC(=O)C1=C(C)NC2=C(C(=O)CCC2)C1c1ccc(O)c(OCC)c1` (centres unmarked) [ST013158, ethyl 4-(3-ethoxy-4-hydroxyphenyl)-2-methyl-5-oxo-1,4,6,7,8-pentahydroquinoline-3-carboxylate], the activity at 5 µM in the assay with Aβ1-40 is 75%; in the assay with Aβ1-42, 67.8%.

On to `CCOC(=O)C1=C(C)NC2=C(C(=O)CCC2)C1c1cccc(F)c1` (centres unmarked) [ST013162, ethyl 4-(3-fluorophenyl)-2-methyl-5-oxo-1,4,6,7,8-pentahydroquinoline-3-carboxylate], for which the values for the activity at 5 µM with Aβ1-40 and with Aβ1-42 were 33.4% and 36.3%, respectively.

In the case of `CCCCCOC(=O)C1=C(C)NC2=C(C(=O)CCC2)C1c1cc(Br)c(O)c(OC)c1` (centres unmarked) [ST013170, pentyl 4-(3-bromo-4-hydroxy-5-methoxyphenyl)-2-methyl-5-oxo-1,4,6,7,8-pentahydroquinoline-3-carboxylate], the activity at 5 µM with Aβ1-40 came out at 62.8%; with Aβ1-42, 49.8%.

Take `CCOC(=O)C1=C(C)NC2=C(C(=O)CCC2)C1c1ccc(C(=O)OC)cc1` (centres unmarked) [ST013173, methyl 4-[3-(ethoxycarbonyl)-2-methyl-5-oxo-4-1,4,6,7,8-pentahydroquinolyl]benzoate]: the activity at 5 µM in the assay with Aβ1-40 came out at 39.2%; in the assay with Aβ1-42 it was 78.1%.

For the compound `CC1=C(C(=O)OC(C)C)C(c2cccc(O)c2)C2=C(CCCC2=O)N1` (centres unmarked) [ST013174, methylethyl 4-(3-hydroxyphenyl)-2-methyl-5-oxo-1,4,6,7,8-pentahydroquinoline-3-carboxylate], the activity at 5 µM is 34.3% with Aβ1-40 and 73.1% with Aβ1-42.

Take `C=CCOC(=O)C1=C(C)NC2=C(C(=O)CCC2)C1c1ccc(OCCC)c(OC)c1` (centres unmarked) [ST013183, prop-2-enyl 4-(3-methoxy-4-propoxyphenyl)-2-methyl-5-oxo-1,4,6,7,8-pentahydroquinoline-3-carboxylate]: the activity at 5 µM in the assay with Aβ1-40 was 78.7%; in the assay on Aβ1-42, 66.3%.

Regarding `CCOC(=O)C1=C(C)NC2=C(C(=O)CC(C)(C)C2)C1c1cccc(OC)c1OC` (centres unmarked) [ST013184, ethyl 4-(2,3-dimethoxyphenyl)-2,7,7-trimethyl-5-oxo-1,4,6,7,8-pentahydroquinoline-3-carboxylate], the results for the activity at 5 µM with Aβ1-40 and in the assay on Aβ1-42 were 73.7% and 60.3%, respectively.

Consider `CC1=C(C(=O)OC2CCCCC2)C(c2cccc(Cl)c2Cl)C2=C(CCCC2=O)N1` (centres unmarked) [ST013188, cyclohexyl 4-(2,3-dichlorophenyl)-2-methyl-5-oxo-1,4,6,7,8-pentahydroquinoline-3-carboxylate], for which the activity at 5 µM turned out to be 0% with Aβ1-40 and 47.1% in the assay on Aβ1-42.

For `CCc1ccc(C2C(C(=O)OC(C)C)=C(C)NC3=C2C(=O)CCC3)cc1` (centres unmarked) [ST013191, methylethyl 4-(4-ethylphenyl)-2-methyl-5-oxo-1,4,6,7,8-pentahydroquinoline-3-carboxylate], the activity at 5 µM with Aβ1-40 is 33.4%; in the assay with Aβ1-42, 98%.

Turning to `CC(=O)Oc1ccc(C2C(C(=O)OC(C)C)=C(C)NC3=C2C(=O)CCC3)cc1` (centres unmarked) [ST013192, 4-{2-methyl-3-[(methylethyl)oxycarbonyl]-5-oxo-4-1,4,6,7,8-pentahydroquinolyl} phenyl acetate], the results for the activity at 5 µM in the assay on Aβ1-40 and in the assay with Aβ1-42 were 55.5% and 82.5%, respectively.

Take `C=CCOC(=O)C1=C(C)NC2=C(C(=O)CCC2)C1c1cccc(OC)c1` (centres unmarked) [ST013199, prop-2-enyl 4-(3-methoxyphenyl)-2-methyl-5-oxo-1,4,6,7,8-pentahydroquinoline-3-carboxylate]: the activity at 5 µM with Aβ1-40 amounted to 68.5%; in the assay on Aβ1-42, 86.7%.

Regarding `CCCOC(=O)C1=C(C)NC2=C(C(=O)CC(C)(C)C2)C1c1cccc(Cl)c1Cl` (centres unmarked) [ST013206, propyl 4-(2,3-dichiorophenyl)-2,7,7-trimethyl-5-oxo-1,4,6,7,8-pentahydroquinoline-3-carboxylate], the activity at 5 µM in the assay with Aβ1-40 was 0%; in the assay on Aβ1-42, 62.5%.

Turning to `CCCCOC(=O)C1=C(C)NC2=C(C(=O)CC(C)(C)C2)C1c1cccc2ccccc12` (centres unmarked) [ST013208, butyl 2,7,7-tnmethyl-4-naphthyl-5-oxo-1,4,6,7,8-pentahydroquinoline-3-carboxylate], the activity at 5 µM was found to be 0% with Aβ1-40 and 20.2% in the assay with Aβ1-42.

For `CC1=C(C(=O)OCc2ccccc2)C(c2ccc(N(C)C)cc2)C2=C(CCCC2=O)N1` (centres unmarked) [ST013212, phenylmethyl 4-[4-(dimethylamino)phenyl]-2-methyl-5-oxo-1,4,6,7,8-pentahydroquinoline-3-carboxylate], the activity at 5 µM in the assay with Aβ1-40 was 50.8%; in the assay on Aβ1-42, 93.7%.

As for `CCOC(=O)C1=C(C)NC2=C(C(=O)CCC2)C1c1ccc(OC)cc1OC` (centres unmarked) [ST013213, ethyl 4-(2,4-dimethoxyphenyl)-2-methyl-5-oxo-1,4,6,7,8-pentahydroquinoline-3-carboxylate], the activity at 5 µM is 78.2% in the assay with Aβ1-40 and 69.3% in the assay on Aβ1-42.

`CC1=C(C(=O)OCc2ccccc2)C(c2ccc([N+](=O)[O-])cc2)C2=C(CC(C)(C)CC2=O)N1` (centres unmarked) [ST013214, phenylmethyl 2,7,7-trimethyl-4-(4-nitrophenyl)-5-oxo-1,4,6,7,8-pentahydroquinoline-3-carboxylate]: the activity at 5 µM came out at 0% in the assay on Aβ1-40 and 4.36% with Aβ1-42.

As to `CC1=C(C(=O)OCc2ccccc2)C(c2ccccc2)C2=C(CC(C)(C)CC2=O)N1` (centres unmarked) [ST013215, phenylmethyl 2,7,7-trimethyl-5-oxo-4-phenyl-1,4,6,7,8-pentahydroquinoline-3-carboxylate], the activity at 5 µM in the assay on Aβ1-40 amounted to 0%; in the assay with Aβ1-42, 88.6%.

In the case of `CCOC(=O)C1=C(C)NC2=C(C(=O)CCC2)C1c1ccccc1OCc1ccccc1` (centres unmarked) [ST013216, ethyl 2-methyl-5-oxo-4-[2-(phenylmethoxy)phenyl]-1,4,6,7,8-pentahydroquinoline-3-carboxylate], the activity at 5 µM in the assay on Aβ1-40 came to 0%; with Aβ1-42, 88.8%.

With `CCc1ccc(C2C(C(=O)OC3CCCC3)=C(C)NC3=C2C(=O)CC(C)(C)C3)cc1` (centres unmarked) [ST013227, cyclopentyl 4-(4-ethylphenyl)-2,7,7-trimethyl-5-oxo-1,4,6,7,8-pentahydroquinoline-3-carboxylate], the activity at 5 µM in the assay with Aβ1-40 amounted to 0%; in the assay with Aβ1-42, 92.7%.

Turning to `CC1=C(C(=O)OCc2ccccc2)C(c2cccc(Cl)c2Cl)C2=C(CC(C)(C)CC2=O)N1` (centres unmarked) [ST013230, phenylmethyl 4-(2,3-dichlorophenyl)-2,7,7-trimethyl-5-oxo-1,4,6,7,8-pentahydroquinoline-3-carboxylate], the activity at 5 µM in the assay with Aβ1-40 is 0%; with Aβ1-42, 69.5%.

Regarding `CC1=C(C(=O)OC2CCCCC2)C(c2ccccc2Cl)C2=C(CC(C)(C)CC2=O)N1` (centres unmarked) [ST013235, cyclohexyl 4-(2-chlorophenyl)-2,7,7-trimethyl-5-oxo-1,4,6,7,8-pentahydroquinoline-3-carboxylate], the activity at 5 µM stood at 0% in the assay on Aβ1-40 and 43% in the assay on Aβ1-42.

`CCCCOC(=O)C1=C(C)NC2=C(C(=O)CC(C)(C)C2)C1c1cccc(Cl)c1Cl` (centres unmarked) [ST013239, butyl 4-(2,3-dichlorophenyl)-2,7,7-trimethyl-5-oxo-1,4,6,7,8-pentahydroquinoline-3-carboxylate]: the values for the activity at 5 µM in the assay on Aβ1-40 and in the assay with Aβ1-42 were 0% and 59.5%, respectively.

In the case of `CCOc1cc(C2C(C(=O)OCc3ccccc3)=C(C)NC3=C2C(=O)CCC3)ccc1O` (centres unmarked) [ST013242, phenylmethyl 4-(3-ethoxy-4-hydroxyphenyl)-2-methyl-5-oxo-1,4,6,7,8-pentahydroquinoline-3-carboxylate], the activity at 5 µM was 81.2% with Aβ1-40 and 64.4% with Aβ1-42.

For the compound `CCCOC(=O)C1=C(C)NC2=C(C(=O)CCC2)C1c1ccc(C)cc1` (centres unmarked) [ST013247, propyl 2-methyl-4-(4-methylphenyl)-5-oxo-1,4,6,7,8-pentahydroquinoline-3-carboxylate], the activity at 5 µM in the assay on Aβ1-40 came to 35.5%; with Aβ1-42 it was 55%.

`COc1cc(C2C(C(=O)OCc3ccccc3)=C(C)NC3=C2C(=O)CCC3)cc(Br)c1O` (centres unmarked) [ST013249, phenylmethyl 4-(3-bromo-4-hydroxy-5-methoxyphenyl)-2-methyl-5-oxo-1,4,6,7,8-pentahydroquinoline-3-carboxylate]: the activity at 5 µM in the assay on Aβ1-40 was found to be 0%; with Aβ1-42, 68%.

As for `COCCOC(=O)C1=C(C)NC2=C(C(=O)CCC2)C1c1ccc(N(C)C)cc1` (centres unmarked) [ST013251, 2-methoxyethyl 4-[4-(dimethylamino)phenyl]-2-methyl-5-oxo-1,4,6,7,8-pentahydroquinoline-3-carboxylate], the activity at 5 µM came out at 89.4% in the assay with Aβ1-40 and 58.6% in the assay on Aβ1-42.

`COCCOC(=O)C1=C(C)NC2=C(C(=O)CCC2)C1c1ccccc1` (centres unmarked) [ST013253, 2-methoxyethyl 2-methyl-5-oxo-4-phenyl-1,4,6,7,8-pentahydroquinoline-3-carboxylate]: the results for the activity at 5 µM in the assay with Aβ1-40 and in the assay with Aβ1-42 were 50.2% and 85.8%, respectively.
